Measurements reported in patent US5869447A, “Cyclohexapeptides and their mixtures, a process for preparing them, and their use” (Hoechst Aktiengesellschaft, priority 1994, dated 1999).
In brackets after ≈: the same amount, converted by molar mass. Square brackets hold non-standard residues; d marks the D form. Peptide text beside a SMILES is read from it. Hyp = O=C(O)[C@@H]1C[C@@H](O)CN1

Tested on: IL-4 receptor (receptor/Fc fusion protein)
Assay: Specific inhibition of IL-4 binding in cell-free binding assays (IC50 table)
Conditions: cell-free IL-4 binding assay, biotinylated ligand 100 ng/ml, PBSA with 5% DMSO; table does not say whether huIL-4 or muIL-4 test
Excerpt: Specific inhibition of IL-4 Binding in Cell-free Binding Assays.
EP 488 170 A1, which is incorporated herein by reference, discloses cell-free binding tests. For carrying them out, recombinant chimeric proteins were used which comprise the extracellular region of what are normally membrane-located receptors on to whose carboxyl terminus has been fused the Fc region of a heavy immunoglobulin chain composed of hinge, CH2 and CH3 domains. These so-called receptor/Fc fusion proteins can be bound, while retaining the specific receptor binding activity, to solid phases which have previously been coated, for example, with monoclonal antibodies directed against the Fc moiety. For this example, Nunc® type B ELISA plates were used as the solid phase. Receptor/Fc fusion proteins, dissolved in PBS containing 10 mg/ml BSA (PBSA), were bonded to these pre-treated plates (huIL-4R/Fc: 500 ng/ml; muIL-4R/Fc: 250 ng/ml; huIL-lR/Fc: 125 ng/ml; at room temperature for 1 h). […] The plates were incubated at room temperature for 1 h in PBSA containing 5% DMSO. After having been washed, the plates were incubated at room temperature for 20 min with streptavidin/peroxidase (Amersham, 1:2000 in PBSA). The bound peroxidase was detected after the plates had been washed repeatedly in a solution of tetramethylbenzidine substrate (Behringwerke). The extinction at 450 nm, which directly reflects the quantity of the biotinylated ligand bound to the receptor, was measured after the plates had been incubated for 30 min. For FIGS. 1-3, the measured extinction signal was plotted against the concentration of the competing agent with the 100% value being the extinction which was measured in the absence of any competing agent.

| SMILES | IC50 |
| --- | --- |
| CC(C)[C@@H]1NC(=O)[C@H](Cc2ccc(O)cc2)NC(=O)[C@@H](C)NC(=O)[C@H](C(C)C)NC(=O)[C@H](Cc2ccc(O)cc2)NC(=O)[C@H](C)NC1=O [cyclo(Tyr--Val--Ala--Tyr--Val--(D)--Ala), cyclo(Tyr-Val-Ala-Tyr-Val-(D)-Ala)] (cyclo(AYV[dA]YV)) | 8.3 µg/mL (≈ 12.4 µM) |
| CC(C)[C@@H]1NC(=O)[C@H](Cc2ccc(O)cc2)NC(=O)[C@@H](C)NC(=O)[C@H](C(C)C)NC(=O)[C@H](Cc2ccc(O)cc2)NC(=O)[C@H]([C@@H](C)O)NC1=O [cyclo(Tyr--Val--Thr--Tyr--Val--(D)--Ala), cyclo(Tyr-Val-Thr-Tyr-Val-(D)-Ala)] (cyclo(TYV[dA]YV)) | 92.0 µg/mL (≈ 132 µM) |
| CC(C)[C@@H]1NC(=O)[C@H](C)NC(=O)[C@H](Cc2ccc(O)cc2)NC(=O)[C@H](C(C)C)NC(=O)[C@@H](C)NC(=O)[C@H](Cc2ccc(O)cc2)NC1=O [cyclo(Val--Tyr--Ala--Val--Tyr--(D)--Ala), cyclo(Val-Tyr-Ala-Val-Tyr-(D)-Ala)] (cyclo(AVY[dA]VY)) | 16.7 µg/mL (≈ 25 µM) |
| CC(C)[C@@H]1NC(=O)[C@H](Cc2ccc(O)cc2)NC(=O)[C@@H](C)NC(=O)[C@H](C(C)C)NC(=O)[C@H](Cc2ccc(O)cc2)NC(=O)[C@H](CCCNC(=N)N)NC1=O [cyclo(Tyr--Val--Arg--Tyr--Val--(D)--Ala), cyclo(Tyr-Val-Arg-Tyr-Val-(D)-Ala)] (cyclo(RYV[dA]YV)) | 96.6 µg/mL (≈ 128 µM) |
| CC(C)[C@@H]1NC(=O)[C@H](Cc2ccc(O)cc2)NC(=O)[C@@H]2C[C@@H](O)CN2C(=O)[C@H](C(C)C)NC(=O)[C@H](Cc2ccc(O)cc2)NC(=O)[C@@H](C)NC1=O [cyclo(Tyr--Val--Hyp--Tyr--Val--(D)--Ala), cyclo(Tyr-Val-Hyp-Tyr-Val-(D)-Ala)] (cyclo([Hyp]YV[dA]YV)) | 17.4 µg/mL (≈ 24.5 µM) |
| CC(C)C[C@@H]1NC(=O)[C@H](C(C)C)NC(=O)[C@H](Cc2ccc(O)cc2)NC(=O)[C@@H](C)NC(=O)[C@H](C(C)C)NC(=O)[C@H](Cc2ccc(O)cc2)NC1=O [cyclo(Tyr--Val--Leu--Tyr--Val--(D)--Ala), cyclo(Tyr-Val-Leu-Tyr-Val-(D)-Ala)] (cyclo(LYV[dA]YV)) | 41.3 µg/mL (≈ 58.3 µM) |
| CC[C@H](C)[C@@H]1NC(=O)[C@H](C(C)C)NC(=O)[C@H](Cc2ccc(O)cc2)NC(=O)[C@@H](C)NC(=O)[C@H](C(C)C)NC(=O)[C@H](Cc2ccc(O)cc2)NC1=O [cyclo(Tyr--Val--Ile--Tyr--Val--(D)--Ala), cyclo(Tyr-Val-Ile-Tyr-Val-(D)-Ala)] (cyclo(IYV[dA]YV)) | 62.5 µg/mL (≈ 88.2 µM) |
